“Also recorded” adds a separate entry of the source.
Tests used:
guinea pig penis = test: Topical application of nitrates to the penis of guinea pigs (change in penile volume); format: in vivo, male outbred Hartley guinea pigs; conditions: for AUC / AUC, % of 1,5-PDN / Peak Effect (% change) / Peak Effect, % of 1,5-PDN / Time of Peak Effect: guinea pig, in vivo
Excerpt: Sixteen (16) male outbred Hartley guinea pigs were weighed and placed into treatment groups as follows:
The animals were placed in dorsal recumbency and held in place by restraints. The penis was extruded from the prepuce. Care was taken to not manipulate the penis. Length and diameter measurements were made using digital calipers. The length measurement was taken from the prepuce to the tip of the glans when the penis was extended. The diameter was taken 0.5 cm proximally from the tip of the glans.
The appropriate amount of test material was applied with a Wiretrol™ pipette to the base of the exposed penis. When application was complete, a timer was started. Measurements were taken at 0, 1, 2, 5, 10 and 15 minutes after application or until detumescence was observed.
The same procedure was followed to topically apply a series of various other nitrate and dinitrate compounds (in neat form) to the penis of guinea pigs. A summary of the activity of this series of nitrate compounds is shown in Table 2, with the AUC and peak effect values for each compound compared to 1,5-PDN.
The same test procedure was followed as in Example 3, but applying a 10% solution of NTG to the penis in varying dosage amounts.
Twelve (12) male Hartley guinea pigs were placed into treatment groups as follows: […]

[1] = Intravenous injection of NTG vs. 1,5-pentane dinitrate in conscious rats (mean arterial blood pressure); format: in vivo, rat; conditions: 30 μg
Protocol: Rats (n=3) with indwelling catheters in the femoral artery for blood pressure measurements and vein for drug administration were given 1 dose of NTG (30 μg) and 6 doses of 1,5-PDN (30 μg-2000 μg) or vehicle (ethanol) in the conscious state. Changes in mean arterial blood pressure (diastolic blood pressure+1/3 (systolic-diastolic blood pressure)) were assessed after each dose of nitrate was given. About 0.5 hr to 1 hr separated the administration of each drug and dose.

rat aortic rings = test: Vascular reactivity: relaxation of rat aortic rings precontracted with phenylephrine; format: cell-based, Sprague-Dawley rats; conditions: FIG. 11, rat aortic strips
Excerpt: Aortic rings (2-3 mm wide) from Sprague-Dawley rats were isolated and placed in a tissue bath. The vessels were precontracted with small amounts of phenylephrine. A transducer connected to a recorder was used to assess changes in tension. As noted in FIG. 10, there was no difference in vascular relaxation, either in potency or efficacy, between 1,5-PDN and 1,5-pentane dinitrite.

penis = conditions: cited from earlier work
penile smooth muscle = conditions: cited from earlier work
corpus cavernosum = test: Intracavernosal injection in anesthetized rats (cavernosal and arterial blood pressure)

SMILES	AUC (guinea pig penis)	AUC, % of 1,5-PDN (guinea pig penis) [%]	Peak Effect (% change) (guinea pig penis)	Peak Effect, % of 1,5-PDN (guinea pig penis) [%]	Time of Peak Effect (guinea pig penis) [min]	also measured
C=CCCCO[N+](=O)[O-] [1-Pentene-5-nitrate]	309	70	35.4	91	2	–
CC(C)=CCO[N+](=O)[O-] [2-Methyl-2-butene-4-nitrate]	305	69	32.6	84	5	–
CCCC(C)O[N+](=O)[O-] (centres unmarked) [2-Pentane nitrate]	323	73	36.0	93	5	–
O=[N+]([O-])OC1CCCC1 [Cyclopentyl nitrate]	380	86	31.8	–	10	–
CC(C)CCO[N+](=O)[O-] [Isoamyl nitrate]	309	70	40.3	104	2	–
CC(C)CO[N+](=O)[O-] [Isobutyl nitrate]	367	–	38.1	–	2	–
O=[N+]([O-])OCC(CO[N+](=O)[O-])O[N+](=O)[O-] [NTG, nitroglycerin]	–	–	–	–	–	effect on penile volume (guinea pig penis; topical, FIGS. 1-3, 1,5-PDN vs saline, 10% NTG solution vs 1,5-PDN): minimal effect on penis volume as compared to 1,5-PDN; decrease in arterial pressure [1]: ~25%; vascular relaxation: NTG vs 1,5-PDN (rat aortic rings): no appreciable difference in the vascular relaxation; patients with erections sufficient for vaginal penetration (penis; at home): 30 % of patients; patients with some response (penis; in vivo): 71 % of patients; headache, systemic blood pressure (penile smooth muscle; in vivo): headaches were a common occurrence; also recorded: decrease in systemic blood pressure and development of headache; relaxation of penile smooth muscle and vascular tissue (penile smooth muscle; in vivo): causes relaxation of penile smooth muscle and vascular tissue, including cavernosal tissue; response compared with papaverine or placebo (penile smooth muscle; only one trial): better than papaverine, another vasodilator, or placebo; change in intracavernosal pressure (corpus cavernosum; anesthetized rats, FIGS. 6-8): relatively small, dose-dependent increases in intracavernosal pressure; effect on systemic arterial blood pressure (corpus cavernosum; anesthetized rats, FIGS. 6-8): almost equivalent systemic ("downstream") reductions in arterial blood pressure; systemic reduction in arterial blood pressure (corpus cavernosum; at the highest dose used): over 30 mmHg

From patent US6056966A, “Method and compositions for treating impotence” (Baker Norton Pharmaceuticals, Inc., priority 1998, dated 2000)
